# Results published in patent publication US11129840B2, “Methods for identifying novel dosing regimens” (Zavante Therapeutics, Inc., priority 2017, dated 2021).
# What was measured:
# [1] = test system: K. pneumoniae (KPC-producer) isolate; test: Time-kill kinetic analysis; assay type: cell-based, Klebsiella pneumoniae
# Experimental: TKK were sampled for colony counts at T0, T2, T4, T8 and T24 hours (h). Two Klebsiella pneumoniae isolates (one KPC and one ESBL), two Pseudomonas aeruginosa isolates (non-MDR), and one Acinetobacter baumannii isolate (MDR) were tested.
# [2] = Phase I safety and tolerability in healthy adult subjects; assay type: in vivo, human
# Experimental: Materials/methods: Phase I, open-label study evaluating IV (ZTI-01) and PO (Monurol®) FOS in healthy adult subjects. […] Blood and urine samples were collected serially before and through 48 hours post-dose and analyzed via LC/MS-MS. Noncompartmental analyses were performed via WinNonlin. Safety was monitored throughout the course of the study.
# CAZ-NS PSA = test: Reference agar dilution MIC, resistant SENTRY isolates; assay type: cell-based, Pseudomonas aeruginosa
# Experimental: (§1) Utilizing existing interpretative criteria for the marketed oral agent (dosed at 3 g) for analysis purposes, FOS susceptibility (S) was determined for recent resistant GN and GP clinical isolates including vancomycin-resistant Enterococcus faecium (VREM) and E. faecalis (VREF); methicillin-resistant Staphylococcus aureus (MRSA) and MR coagulase negative staphylococci (MR-CoNS), Escherichia coli (EC) and Klebsiella pneumoniae (KPN) containing extended spectrum beta-lactamases (ESBL) or were carbapenem resistant (CR); and), Pseudomonas aeruginosa (PSA) non-susceptible to ceftazidime (CAZ-NS) or to meropenem (MER-NS). […] Isolates were collected from hospitalized patients in the US as a part of the SENTRY surveillance program, 2013-2015.
# MER-NS PSA = test: as above; assay type: cell-based, Pseudomonas aeruginosa
# Experimental: as §1
# [3] = Single dose plasma PK in mice after SC administration; details: mouse, in vivo
# [4] = test system: Enterobacter cloacae complex; test: Reference agar dilution MIC, ZEUS baseline isolates; assay type: cell-based
# Experimental: (§2) FOS was tested against 465 GN baseline clinical isolates collected in the cUTI clinical trial. Isolates were susceptibility (S) tested against comparator agents by reference broth microdilution and FOS by reference agar dilution (25 μg/mL glucose-6-phosphate supplementation). Existing FDA FOS breakpoints of ≤64 mg/L for the oral formulation were used for comparative assessments. Screen-positive ESBL Enterobacteriaceae isolates were characterized by whole genome sequencing and analysis for the presence of known β-lactamase genes.
# [5] = test system: ESBL-containing K. pneumoniae; test: as above; assay type: cell-based; details: Klebsiella pneumoniae
# Experimental: as §2
# Enterobacteriaceae = test: as above; assay type: cell-based
# Experimental: as §2
# Proteus mirabilis = test: as above; assay type: cell-based; details: 20 isolates
# Experimental: as §2
# Pseudomonas aeruginosa = test: as above; assay type: cell-based
# Experimental: as §2
# [6] = test system: ESBL-containing P. mirabilis; test: as above; assay type: cell-based; details: Proteus mirabilis; 3 isolates
# Experimental: as §2
# E. coli = test: as above; assay type: cell-based; details: 329 E. coli
# Experimental: as §2
# Klebsiella pneumoniae = test: as above; assay type: cell-based
# Experimental: as §2
# ESBL-containing E. coli = test: as above; assay type: cell-based; details: Escherichia coli; 49 isolates
# Experimental: as §2
smiles,measurement,setting,value
"C[C@@H]1O[C@@H]1P(=O)(O)O [FOS, fosfomycin]",increase in bacterial growth,"[1]; FOS 0.5, 1 and 2×MIC, by 24 h",approximately 2 log10
same,log10 reduction in bacterial growth (CFU),"[1]; FOS 2×MIC, by 4 h",> 3 log10
same,killing activity,[1]; FOS alone,bactericidal
same,share of TEAE that occurred after the 8 g IV dose,[2]; 8 g IV,67.9%
same,hypocalcemia (most common TEAE),[2]; after 1 g IV,17.9%
same,bradycardia (most common TEAE),[2]; after 8 g IV,28.6%
same,% of subjects reporting a treatment-emergent adverse event (TEAE),[2]; all regimens,80%
same,severity of TEAEs,"[2]; all regimens, resolved without sequelae",mild-moderate
same,headache (most common FOS-related TEAE),"[2]; human, in vivo",10.7%
same,MIC,CAZ-NS PSA; Pseudomonas aeruginosa,> 256 µg/mL
same,MIC90,CAZ-NS PSA; Pseudomonas aeruginosa,128 µg/mL
same,MIC50,"CAZ-NS PSA; Pseudomonas aeruginosa, 38 CAZ-NS PSA",64 µg/mL
same,No. of isolates with FOS MIC≤64 μg/mL,CAZ-NS PSA; of 38 CAZ-NS PSA,32
same,MIC,MER-NS PSA; Pseudomonas aeruginosa,> 256 µg/mL
same,MIC90,MER-NS PSA; Pseudomonas aeruginosa,128 µg/mL
same,MIC50,"MER-NS PSA; Pseudomonas aeruginosa, 42 MER-NS PSA",64 µg/mL
same,No. of isolates with FOS MIC≤64 μg/mL,MER-NS PSA; of 42 MER-NS PSA,34
same,half-life,[3],30.6 to 66 min
same,MIC90,[4],128 µg/mL
same,MIC50,[4]; 14 isolates,16 µg/mL
same,MIC90,[5],128 µg/mL
same,MIC50,[5]; 28 isolates,16 µg/mL
same,% of isolates ≤64 mg/L,Enterobacteriaceae,96.4%
same,MIC50,Enterobacteriaceae,1 µg/mL
same,MIC90,Enterobacteriaceae,16 µg/mL
same,MIC50,Proteus mirabilis,2 µg/mL
same,MIC90,Proteus mirabilis,32 µg/mL
same,MIC90,Pseudomonas aeruginosa,256 µg/mL
same,MIC50,Pseudomonas aeruginosa; 21 isolates,64 µg/mL
same,MIC50,[6],2 µg/mL
same,% S to FOS,E. coli,100.0%
same,% of isolates <64 mg/L,Klebsiella pneumoniae; 62 isolates,87.1%
same,MIC90,Klebsiella pneumoniae; Klebsiella pneumoniae,128 µg/mL
same,MIC50,"Klebsiella pneumoniae; Klebsiella pneumoniae, 62 isolates",16 µg/mL
same,MIC50,ESBL-containing E. coli,1 µg/mL
same,MIC90,ESBL-containing E. coli,2 µg/mL
